# Test results from patent US6414037B1 (Pharmascience, priority 1998, dated 2002).
# Tested on: C3H/10T1/2 clone 8 cells
# Test: Two-stage transformation assay in C3H10T1/2 cells
# Type: cell-based, mouse
# Details: DMBA (0.25 μg/ml), TPA (0.1 μg/ml)
# Description: This 10T1/2 cell line of mouse embryo fibroblasts has been widely used as an experimental system to study neoplastic transformation induced by a variety of agents, such as polycyclic hydrocarbons, methylating agents, and X-rays. Two-stage transformation assays, with 3-methylcholanthrene (MCA) or DMBA as inducer and TPA as promoter, were performed in these tests.
# C3H10T1/2 Cl 8 cells were purchased from the American Type Culture Collection (ATCC CCL 226, Rockville, Md.) and maintained in Eagle's basal medium with Earle's salts (EBME) containing 10% (v/v) fetal bovine serum (FBS, Gibco Laboratories, Chagrin Falls, Ohio) without antibiotics, and sodium bicarbonate (2.2 gl). Cells were seeded at 5×10^4 per 75 cm^2 flask and grown in a humidified incubator containing 5% carbon dioxide in air at 37° C. Cells used in all these experiments were passage between 10-13.
# Two-stage transformation assays in C3H10T1/2 cells were performed according to a procedure modified from that described in Mondal et al. (1976) Cancer Res. 36:2254-2260. One thousand cells obtained from freshly confluent flasks were seeded per well in 12-well plate containing 2 ml of medium (12 wells per experimental point). After incubation at 37° C. for three days, MCA or DMBA (2 mg/ml stock solution in DMSO) was added to give final concentrations of 0.25 μg/ml. Carcinogen-containing medium was removed from the growing cultures after 24 hours and cells were rinsed once with PBS before addition of fresh EBME supplemented with 10% FBS and gentamycin (25 μg/ml). […] TPA and test compounds were added to the medium each time the medium was changed. Medium was changed on all plates twice weekly. After confluency was reached, the FBS concentration was reduced to 5% and amphotericin B (fungizone, 1.5 μg/ml) was added to the medium (see Reznikoff et al. (1973) Cancer Res. 33:3239-3249 and Bertram (1979) Cancer Lett. 7:289-298). Subsequent medium changes were performed weekly. Cultures were fixed with methanol and stained with Giemsa at the seventh week. Type II and III transformed foci were scored according to the teachings of Landolph “Transformation Assay of Established Cell Lines: Mechanism and Application,” Eds. Kakunaga et al. (Toronto: Oxford University Press, 1985), at pp. 185-199.
# [1] = all-trans-retinyl acetate (0.3 μg/ml)
SMILES,No. of wells foci/total no. of wells [1],Total No. of foci/no. wells scored [1],Total No. type II [1],Total No. type III [1],Wells with foci (%) [1],No. of wells foci/total no. of wells (aspirin 200 μM),Total No. of foci/no. wells scored (aspirin 200 μM),Total No. type II (aspirin 200 μM),Total No. type III (aspirin 200 μM),Wells with foci (%) (aspirin 200 μM)
CC(=O)OC/C=C(C)/C=C/C=C(C)/C=C/C1=C(C)CCCC1(C)C [all-trans-retinyl acetate],0/12,0/12,0,0,0%,,,,,
CC(=O)Oc1ccccc1C(=O)O [aspirin],,,,,,0/12,0/12,0,0,0%
